According to US5128493A, “Platinum complexes” (Nippon Kayaku Kabushiki Kaisha, priority 1987, dated 1992):

Experiments:
[1] = system: Mouse leukemia L1210 cells; assay: Growth inhibitory activity against cultured tumor cells, L1210; type: cell-based; conditions: Tumor cell L1210; RPMI 1640, 10% fetal calf serum
Procedure: (§1) Test of Growth Inhibitory Activity Against Various Kinds of Cultured Tumor Cells
(§2) Mouse leukemia L1210 cells were cultured in a RPMI 1640 medium containing 10% of fetal calf serum and mouse Lewis lung carcinoma (LL) cells were cultured in a RPMI 1640 medium containing 10% fetal calf serum and 100 μg/ml of Kanamycin.

[2] = system: mouse Lewis lung carcinoma (LL) cells; assay: Growth inhibitory activity against cultured tumor cells, LL; type: cell-based; conditions: Tumor cell LL; RPMI 1640, 10% fetal calf serum, 100 μg/ml Kanamycin
Procedure: as §1, §2

Mouse Leukemia L1210 = assay: Antitumor activity against mouse leukemia L1210 in vivo; design: species or system mouse (female CDF1); conditions: i.p. once a day for 5 consecutive days; for max (T/C): L1210, mean survival time, at optimum dose; for LD50: L1210-bearing female CDF1 mice; for Opt. dose: L1210, daily amount giving the max (T/C)
Procedure: Test of Antitumor Activity Against Mouse Leukemia L1210 in vivo
1×10^5 mouse leukemia L1210 cells were inoculated into the abdominal cavities of 6-week-old female CDF1 mice. From the next day, a compound was administered to them intraperitoneally once a day for 5 consecutive days. Mice of a compound-non-treated group (control group) were administered with physiological saline solution in the same manner. The mean survival time of the compound-treated group and the control group were measured and T/C was calculated from the equation (1): [formula]
In Table 4, max (T/C) means the maximum value of T/C and optimum dose (Opt. dose) means a daily administration amount giving the max (T/C), namely, an optimum daily administration amount.

[3] = mouse, in vivo, ip
Text: A compound was singly administered to 6-week-old male CDF1 mice intraperitoneally.

[4] = system: Mouse Lewis Lung Carcinoma; assay: Antitumor activity against mouse Lewis lung carcinoma in vivo; design: species or system mouse (male BDF1); conditions: i.p. once a day for 5 consecutive days; for max (T/C) / Opt. dose: Lewis lung carcinoma; for max (T/C): median survival time, at optimum dose; for Opt. dose: daily amount giving the max (T/C)
Procedure: Test of Antitumor Activity Against Mouse Lewis Lung Carcinoma
1×10^6 mouse Lewis lung carcinoma cells were inoculated into the abdominal cavities of 6-week-old male BDF1 mice. From the next day, a compound was administered to them intraperitoneally once a day for 5 consecutive days. Mice of compound-non-treated group (control group) were administered with physiological saline solution in the same manner. From the median survival time of the compoundtreated group and the control group, T/C was calculated according to the following equation (2): [formula]
In Table 5, max (T/C), and Opt. dose and LD50 mean the same ones in Table 4, respectively.

[5] = cis-Platin, prior art description; cited from earlier work
[6] = system: cis-Platin resistant mouse leukemia L1210 cells; assay: Growth inhibitory activity against cis-Platin resistant tumor cells, L1210; type: cell-based; conditions: Tumor cell L1210; ratio of IC50 for cis-Platin resistant cells to IC50 for non-resistant cells
Text: (§3) 1×10^5 mouse leukemia L1210 cells or 1×10^5 mouse leukemia P388 cells were inoculated into the abdominal cavities of CDF1 female mice. […] After 5 days, their tumor cells were inoculated to the abdominal cavities of other CDF1 female mice, and the same treatment was applied.

[7] = system: cis-Platin resistant mouse leukemia P388 cells; assay: Growth inhibitory activity against cis-Platin resistant tumor cells, P388; type: cell-based; conditions: Tumor cell P388; ratio of IC50 for cis-Platin resistant cells to IC50 for non-resistant cells
Text: as §3

Compound	IC50 [1] [µg/mL]	IC50 [2] [µg/mL]	Solubility in water [mg/mL]	max (T/C) (Mouse Leukemia L1210)	LD50 (Mouse Leukemia L1210) [mg/kg]	Opt. dose (Mouse Leukemia L1210) [mg/kg]	Body weight ratio [3]	max (T/C) [4]	LD50 ([4]; Lewis lung carcinoma-bearing male BDF1 mice) [mg/kg]	Opt. dose [4] [mg/kg]	dissolving in water (in words) [5]	IC50 R/IC50 [6]	IC50 R/IC50 [7]	Solubility in physiological saline solution (physiological saline) [mg/ml]
cis-4-Oxacyclohexane-1,1-dicarboxylato-2,3-dimethyl-1,4-butanediamine Platinum [Compound No. 6]	0.11	1.06	> 20											
cis-Diethylmalonato-2,3-dimethyl-1,4-butanediamine Platinum [Compound No. 8]			> 15											
cis-Oxalato-2,3-dimethyl-1,4-butanediamine Platinum [Compound No. 2]	0.11	0.65	> 3	296	7.2	4.0	0.77							
cis-Ethylmalonato-2,3-dimethyl-1,4-butanediamine Platinum [Compound No. 7]			> 20											
cis-Cyclobutane-1,1-dicarboxylato-2,3-dimethyl-1,4-butanediamine Platinum [Compound No. 4]	1.01	2.10		328		32.0		144	48.0	32.0				
N.N.[Cl][Pt][Cl] [cis-Platin, cis-dichlorodiammineplatinum, reference compound]						4					dissolving in water slowly			
cis-Dimethylmalonato-2,3-dimethyl-1,4-butanediamine Platinum [Compound No. 5]	0.40	1.06	> 20	245		32.0	0.89					1.4	6.2	
cis-Dichloro-2,3-dimethyl-1,4-butanediamine Platinum [Compound No. 1]	0.04	0.43		323	3.0	2.0	0.79							> 2
cis-Malonato-2,3-dimethyl-1,4-butanediamine Platinum [Compound No. 3]	0.27	0.95	> 30	400		16.0	1.00	234		32.0		1.3	4.6	
